Here are results for one compound from patent US20240335548A1, “MACROMOLECULES” (Starpharma Pty Ltd, priority 2011, published 2024).

The test system of one series is MDA-MB-231 tumours. Nature of the series: Xenograft MDA-MB-231 efficacy study. The class given is in vivo, female Balb/c nude mice.
The nature of series [1]: Pharmacokinetic analysis, plasma half-life after IV administration. The following applies: rat, plasma, iv.
Method: The plasma half-lives of tritium labelled docetaxel and the construct from Experiment 8 (c) (prepared using tritium labelled docetaxel) after IV administration into rats were determined (Kaminskas, L. M., Boyd, B. J., Karellas, P., Krippner, G. Y., Lessene, R., Kelly, B and Porter, C. J. H. “The Impact of Molecular Weight and PEG Chain Length on the Systemic Pharmacokinetics of PEGylated Poly-L-Lysine Dendrimers” Molecular Pharm. 2008, 5, 449-463).
For the next series, the system named is A2058 (Melanoma). Nature of the series: Cell growth inhibition SRB assay. The class given is cell-based. The following applies: Homo sapiens; A2058; 72 hours; equivalent drug loading; average of duplicate. The method, then: (§1) All solutions were prepared in saline (except docetaxel which was made in ethanol). All solutions were stored at −20° C. All values were based on the equivalent drug loading.
For orientation: In SRB staining, fixed cells bind dye roughly in proportion to their protein.

For another series, the system named is DU145 (Prostate). Nature of the series: Cell growth inhibition SRB assay. The series is classed as cell-based. The settings on record: Homo sapiens, DU-145; DU145; 72 hours; equivalent drug loading; average of duplicate. How it is done: as §1
In the next series the test system is HCT116 (Colon). Nature of the series: Cell growth inhibition SRB assay. The series is classed as cell-based. The following applies: Homo sapiens, HCT-116; HCT116; 72 hours; equivalent drug loading; average of duplicate. How it is done:
as §1

A further series has as its system A549 (Lung). Nature of the series: Cell growth inhibition SRB assay. The series is classed as cell-based. The following applies: Homo sapiens; A549; 72 hours; equivalent drug loading; average of duplicate. The method, then:
as §1

Another series deals with HT29 (Colon). Nature of the series: Cell growth inhibition SRB assay. The class given is cell-based. The settings on record: Homo sapiens, HT-29; HT29; 72 hours; equivalent drug loading; average of duplicate. The method, then: as §1
The next series has as its system MDA-MB-231 (Breast). Nature of the series: Cell growth inhibition SRB assay. The class given is cell-based. The settings on record: Homo sapiens; MDA-MB-231; 72 hours; equivalent drug loading; average of duplicate. The method, then: as §1
The subject of another series is H460 (Lung). Nature of the series: Cell growth inhibition SRB assay. The series is classed as cell-based. The following applies: Homo sapiens, NCI-H460; H460; 72 hours; equivalent drug loading; average of duplicate. The method, then: as §1
For a further series, the system named is MCAS (Ovarian). Nature of the series: Cell growth inhibition SRB assay. The series is classed as cell-based. The settings on record: MCAS; 72 hours; equivalent drug loading; average of duplicate. How it is done: as §1
In a further series the test system is ES2 (Ovarian). Nature of the series: Cell growth inhibition SRB assay. The following applies: ES2; 72 hours; equivalent drug loading; average of duplicate. The series is classed as cell-based. The method, then: as §1
A further series has as its system PC-3 (Prostate). Nature of the series: Cell growth inhibition SRB assay. The series is classed as cell-based. The following applies: PC-3; 72 hours; equivalent drug loading; average of duplicate. How it is done:
as §1

Series [2] is described as follows: Maximum tolerated dose (MTD) study. The series is classed as in vivo, female Balb/c mice. The settings on record: intravenous once weekly for 3 weeks (day 1, 8 and 15). How it is done: Groups of female Balb/c mice were administered an intravenous injection of dendrimer (0.1 ml/10 g body weight) or docetaxel (0.05 ml/10 g body weight) once weekly for 3 weeks (day 1, 8 and 15). Mice were weighed daily and watched for signs of toxicity. Animals were monitored for up to 10 days following the final drug dose. Any mice exceeding ethical endpoints (≥20% body weight loss, poor general health) were immediately sacrificed and observations were noted. […] More than twice the dose of docetaxel could be safely administered using drug dendrimer construct compared to docetaxel alone.

For series [3] the following is noted: day 16, one day after final dose. The method, then:
The 20 mice were randomised into 5 groups of four mice (mean tumour volume ˜90 mm^3). Animals were eye bled in the morning for baseline blood cell counts and then drug dosing commenced later that day (day 1). […] A second eye bleed was performed on day 11 (Table 7 A-C). Mice were killed one day following the final drug dose (day 16).

The conditions of series [4]: free drug, footnote of Table 1; cited from earlier work.

Regarding `CC(=O)O[C@@]12CO[C@@H]1C[C@H](O)[C@@]1(C)C(=O)[C@H](O)C3=C(C)[C@@H](OC(=O)[C@H](O)[C@@H](NC(=O)OC(C)(C)C)c4ccccc4)C[C@@](O)([C@@H](OC(=O)c4ccccc4)[C@H]21)C3(C)C` [Docetaxel, reference compound], the “Mean tumour Volumne mm^3 (sd)” value with MDA-MB-231 tumours (Day 1, i.v. day 1, 8, 15, docetaxel 15 mg/kg, Exp 3 (b) 20 mg/kg, Exp 8 (c) […] mg/kg) is listed as 111.94 (6.41), mm^3; in the series with MDA-MB-231 tumours (Day 9, same doses), 135.57 (18.85), mm^3; with MDA-MB-231 tumours (Day 19, same doses) it was 49.92 (11.61), mm^3; in the series on MDA-MB-231 tumours (Day 29, same doses), 18.81 (2.09), mm^3; in the series on MDA-MB-231 tumours (Day 40, same doses), 10.75 (1.95), mm^3; in the series with MDA-MB-231 tumours (Day 61, same doses), 95.94 (33.08), mm^3. Besides, the “Mean tumour Volumne mm^3 (sd)” value was 478.67 (169.27), mm^3 in the series with MDA-MB-231 tumours (Day 81, same doses) and 974.83 (302.59), mm^3 in the series with MDA-MB-231 tumours (Day 100, same doses). Besides, the half-life (usually how long it takes for the measured level to halve) in series [1] was less than 1 h. Besides, the GI50 (in general, the concentration giving 50% growth inhibition) is 2 nM with A2058 (Melanoma); 2.5 nM in the series with DU145 (Prostate); 0.7 nM in the series with HCT116 (Colon); 3.5 nM in the series with A549 (Lung); 1.5 nM in the series on HT29 (Colon); 3.5 nM with MDA-MB-231 (Breast). In addition, the GI50 is 1.5 nM in the series on H460 (Lung), 7 nM with MCAS (Ovarian), 5 nM with ES2 (Ovarian) and 2.5 nM with PC-3 (Prostate). Moreover, in series [2], the Tolerated dose is on record as 15 mg/kg docetaxel equivalents. For the same compound, the “Mean Tumour Weights (g) (sd)” value in [3] came out at 0.048 g. The “solubility of the drug in water” value in series [4] is “The solubility of docetaxel and in water is 5 μg/mL”.
